Measurements reported in US20210368825A1, “FEED ADDITIVE FOR DAIRY CATTLE COMPRISING N-ACETYL-L-TRYPTOPHAN AS ACTIVE INGREDIENT” (CJ CHEILJEDANG CORPORATION, priority 2018, published 2021).

Experiments:
[1] = tested on: milking cows after calving; assay: Analysis of milk quality of dairy cattle after calving according to NALT feeding (milk scanner FT1); assay type: in vivo, Holstein Friesian cows; parameters: Aceton / Aceton, total AVG / BHB / BHB, total AVG / Cas.B / Cas.B, total AVG / Mono FA / Mono FA, total AVG / Saturated FA / Saturated FA, total AVG / Total FA / Total FA, total AVG: unit not given here
Text: (§1) From among Holstein Friesian cows in the late stage of gestation corresponding to 60 days before calving, 8 cows were selected in consideration of calving time (expected calving date±15 days), the number of calving (calving number), and the like, and 4 cows were assigned to each of a control (untreated) and a treated group.
(§2) In the present disclosure, as a basal diet fed during a dry period and a milking period, total mixed ration (TMR), roughage, and concentrates were provided in accordance with NRC (2001) nutrition requirements for dry cows. In the case of the treated group, evaluation was performed by supplementing N-acetyl-L-tryptophan (NALT) to the basal diet. Newborn calves were fed with colostrum for 3 days and then fed with milk obtained during a milking process for 8 weeks.
(§3) Evaluation of feed feeding before calving by feeding N-acetyl-L-tryptophan was performed for 60±8 days (error caused by difference in expected calving dates). The control was fed with the basal diet, and the treated group was fed with the basal diet supplemented with 15 g of NALT.
Raw milk was pooled at 3 a.m. and 3 p.m. every 14 days after calving when lactation was initiated, and chemical compositions contained in milk, i.e., milk fat, milk protein, lactose, solid-not-fat (SNF), somatic cells, milk urea nitrogen (MUN), acetone, beta-hydroxybutyrate (BHB), casein-beta, mono- and poly-unsaturated fatty acids, saturated fatty acids, and total fatty acid, were analyzed using a milk scanner FT1 (Foss Alle 1 DK-3400 Hilleroed, Denmark).
In addition, in order to identify changes in milk protein yield and milk fat yield, changes were identified on a weekly basis.

[2] = tested on: dairy cattle in dry period; parameters: species or system Holstein Friesian cows; conditions: in vivo
Text: as §1, §2, §3
(§4) Blood was collected from dairy cattle and calves during 6 weeks of the dry period and immediately after calving via the jugular vein before feeding a morning feed every 2 weeks for 8 weeks. The collected blood was aliquoted into a serum tube (BD Vacutainer, Plymouth, UK) and a heparin tube (Becton-Dickinson, Belliver Industrial Estate, Plymouth, PL6 7BP, UK) and centrifuged (3,500 rpm, 15 min, 20° C.) to separate plasma.
(§5) Samples for analysis of metabolic changes such as albumin, glutamic-oxalacetic transaminase (GOT), blood urea nitrogen (BUN), triglycerides (TG), cholesterol (CHO), glucose (GLU), and non-esterified fatty acid (NEFA) were aliquoted into a 1.5 mL tube (Eppendorf AG, Hamburg, Germany) in an amount of 500 μL each and stored in a deep freezer at −80° C.

[3] = tested on: dairy cattle after calving; parameters: species or system Holstein Friesian cows; conditions: in vivo
Text: as §1, §2, §3, §4, §5

[4] = average over 8 weeks after calving
[5] = milk, average over 8 weeks after calving

## CC(=O)N[C@@H](Cc1c[nH]c2ccccc12)C(=O)O [NALT, N-acetyl-L-tryptophan]
[1]; 0 wk
  Lactose: 3.48%
  Milk fat: 6.25%
  Milk protein: 12.81%
  Milk urea nitrogen: 24.43 mg/dL
  Solid-not Fat: 17.17%
  Somatic cells: 4867.95 ×10^3
[1]; [4]
  Lactose, total AVG: 4.38%
  Milk fat, total AVG: 6.31%
  Milk protein, total AVG: 4.88%
  Milk urea nitrogen, total AVG: 16.49 mg/dL
  Solid-not Fat, total AVG: 9.95%
  Somatic cells, total AVG: 1086.15 ×10^3
[1]; immediately after calving
  milk fat yield of colostrum compared with control: lower
  milk protein yield of colostrum compared with control: higher
[1]; milk beta-hydroxybutyrate, 0 wk
  BHB: 0.00
[1]; milk beta-hydroxybutyrate, average over 8 weeks after calving
  BHB, total AVG: 0.04
[1]; milk casein-beta, 0 wk
  Cas.B: 9.76
[1]; milk casein-beta, average over 8 weeks after calving
  Cas.B, total AVG: 3.71
[1]; milk mono-unsaturated fatty acids, 0 wk
  Mono FA: 1.35
[1]; milk mono-unsaturated fatty acids, average over 8 weeks after calving
  Mono FA, total AVG: 1.70
[1]; milk poly-unsaturated fatty acids, 0 wk
  Poly FA: 0.34
[1]; milk poly-unsaturated fatty acids, average over 8 weeks after calving
  Poly FA, total AVG: 0.36
[1]; milk, 0 wk
  Aceton: 0.00
  Saturated FA: 4.95
  Total FA: 1.38
[1]; [5]
  Aceton, total AVG: 0.07
  Saturated FA, total AVG: 4.20
  Total FA, total AVG: 2.16
[1]; weekly basis after calving, control showed a tendency to decrease
  milk fat yield as the experiment progressed: tendency to be maintained constantly
[2]
  Albumin: 3.93 g/dL
  Albumin, total AVG: 3.74 g/dL
  BUN: 12.25 mg/dL
  BUN, total AVG: 9.88 mg/dL
  CHO: 194.00 mg/dL
  CHO, total AVG: 143.08 mg/dL
  GLU: 50.00 mg/dL
  GLU, total AVG: 50.52 mg/dL
  GOT: 82.50 U/L
  GOT, total AVG: 80.92 U/L
  TG: 16.25 mg/dL
  TG, total AVG: 19.88 mg/dL
  effect on metabolic changes of dairy cattle compared with control: did not significantly affect
[3]
  Albumin: 3.73 g/dL
  Albumin, total AVG: 4.01 g/dL
  BUN: 10.75 mg/dL
  BUN, total AVG: 16.75 mg/dL
  CHO: 101.25 mg/dL
  CHO, total AVG: 188.45 mg/dL
  GLU: 83.75 mg/dL
  GLU, total AVG: 68.35 mg/dL
  GOT: 87.00 U/L
  GOT, total AVG: 89.65 U/L
  TG: 8.00 mg/dL
  TG, total AVG: 9.45 mg/dL
  effect on metabolic changes of dairy cattle compared with control: did not significantly affect
